Assays:
Test in all cases: Bacterial panel testing, MIC by broth microdilution
Assay type in all cases: cell-based
Settings in all cases: 20-24 hours growth
[1] = tested on: Staphylococcus aureus
Protocol: (§1) One to three colonies of bacteria were picked from an Mueller-Hinton or Brain Heart infusion agar plate (depending on the bacterial strain) and transferred to 3 ml Mueller-Hinton broth or Brain Heart infusion media (depending on the bacterial strain). Bacteria were allowed to grow for 2-4 hours in an incubator at 37° C. Bacteria-inoculated media were dispersed in 0.9% saline to match McFarland standard density. 100 μl standardized inoculation was added to 20 ml media (dilution 1). 10 μl of the new dilution was added to 990 μl media and mixed (dilution 2). 10 μl of dilution 2 was spread on an agar plate and allowed to grow overnight. Colonies were then […].
(§2) Test compound was diluted to 10 μg/ml in dimethylsulfoxide. Four μl of Rifampicin antibiotic was loaded into row H, column 2.
(§3) All wells were then filled with 100 μl of inoculated media (dilution 1 from Example 1). A further 100 μl of the inoculated media was then added to column 2 and the contents are pipetted to thoroughly mix the contents. A full 100 μl was then transferred from column 2 and mixed into column 3. This process was continued from left to right until columns 2-12 were serially diluted, and the final draw from column 12 was discarded. The plates were covered with 3M sealing tape (plates containing Enterococcus faecium were sealed with Air Pore sealing tape) and allowed to grow for 20-24 hours. Cytotoxic wells (clear wells) are then scored and the potency of the compound was determined.

[2] = tested on: Enterococcus faecium
Protocol: as §1, §2, §3

[3] = tested on: Pseudomonas aeruginosa
Protocol: as §1, §2, §3

[4] = tested on: Salmonella choleraesuis
Protocol: as §1, §2, §3

[5] = tested on: Eschericia coli
Protocol: as §1, §2, §3

CC(C)(C)OC(=O)NC(CCCN)C(=O)NCC1OC2OC3C(CNC(=O)C(CCCN)NC(=O)OC(C)(C)C)OC(OC4C(CNC(=O)C(CCCN)NC(=O)OC(C)(C)C)OC(OC5C(CNC(=O)C(CCCN)NC(=O)OC(C)(C)C)OC(OC6C(CNC(=O)C(CCCN)NC(=O)OC(C)(C)C)OC(OC7C(CNC(=O)C(CCCN)NC(=O)OC(C)(C)C)OC(OC8C(CNC(=O)C(CCCN)NC(=O)OC(C)(C)C)OC(OC1C(O)C2O)C(O)C8O)C(O)C7O)C(O)C6O)C(O)C5O)C(O)C4O)C(O)C3O.Cl.Cl.Cl.Cl.Cl.Cl.Cl (centres unmarked)
>200 µg/mL: MIC SA [1] | MIC EF [2] | MIC PA [3]

Cl.Cl.Cl.Cl.Cl.Cl.Cl.NC(CO)C(=O)NCC1OC2OC3C(CNC(=O)C(N)CO)OC(OC4C(CNC(=O)C(N)CO)OC(OC5C(CNC(=O)C(N)CO)OC(OC6C(CNC(=O)C(N)CO)OC(OC7C(CNC(=O)C(N)CO)OC(OC8C(CNC(=O)C(N)CO)OC(OC1C(O)C2O)C(O)C8O)C(O)C7O)C(O)C6O)C(O)C5O)C(O)C4O)C(O)C3O (centres unmarked)
>200 µg/mL: MIC SC [4] | MIC SA [1] | MIC PA [3] | MIC EC [5]

CC(O)C(N)C(=O)NCC1OC2OC3C(CNC(=O)C(N)C(C)O)OC(OC4C(CNC(=O)C(N)C(C)O)OC(OC5C(CNC(=O)C(N)C(C)O)OC(OC6C(CNC(=O)C(N)C(C)O)OC(OC7C(CNC(=O)C(N)C(C)O)OC(OC8C(CNC(=O)C(N)C(C)O)OC(OC1C(O)C2O)C(O)C8O)C(O)C7O)C(O)C6O)C(O)C5O)C(O)C4O)C(O)C3O.Cl.Cl.Cl.Cl.Cl.Cl.Cl (centres unmarked)
>200 µg/mL: MIC SC [4] | MIC SA [1] | MIC PA [3] | MIC EC [5]

O=C(C[n+]1ccccc1)NCC1OC2OC3C(CNC(=O)C[n+]4ccccc4)OC(OC4C(CNC(=O)C[n+]5ccccc5)OC(OC5C(CNC(=O)C[n+]6ccccc6)OC(OC6C(CNC(=O)C[n+]7ccccc7)OC(OC7C(CNC(=O)C[n+]8ccccc8)OC(OC8C(CNC(=O)C[n+]9ccccc9)OC(OC1C(O)C2O)C(O)C8O)C(O)C7O)C(O)C6O)C(O)C5O)C(O)C4O)C(O)C3O.[Cl-].[Cl-].[Cl-].[Cl-].[Cl-].[Cl-].[Cl-] (centres unmarked)
>200 µg/mL: MIC SC [4] | MIC SA [1] | MIC EF [2] | MIC PA [3] | MIC EC [5]

Cl.Cl.Cl.Cl.Cl.Cl.Cl.O=C(CNCc1ccccc1)NCC1OC2OC3C(CNC(=O)CNCc4ccccc4)OC(OC4C(CNC(=O)CNCc5ccccc5)OC(OC5C(CNC(=O)CNCc6ccccc6)OC(OC6C(CNC(=O)CNCc7ccccc7)OC(OC7C(CNC(=O)CNCc8ccccc8)OC(OC8C(CNC(=O)CNCc9ccccc9)OC(OC1C(O)C2O)C(O)C8O)C(O)C7O)C(O)C6O)C(O)C5O)C(O)C4O)C(O)C3O (centres unmarked)
>200 µg/mL: MIC SC [4] | MIC SA [1] | MIC EF [2] | MIC PA [3] | MIC EC [5]

COC(=O)c1cccc(NCC2OC3OC4C(CNc5cccc(C(=O)OC)c5)OC(OC5C(CNc6cccc(C(=O)OC)c6)OC(OC6C(CNc7cccc(C(=O)OC)c7)OC(OC7C(CNc8cccc(C(=O)OC)c8)OC(OC8C(CNc9cccc(C(=O)OC)c9)OC(OC9C(CNc%10cccc(C(=O)OC)c%10)OC(OC2C(O)C3O)C(O)C9O)C(O)C8O)C(O)C7O)C(O)C6O)C(O)C5O)C(O)C4O)c1 (centres unmarked)
>200 µg/mL: MIC SC [4] | MIC SA [1] | MIC PA [3] | MIC EC [5]

OC1C2OC(CN3CCCc4ccccc43)C(OC3OC(CN4CCCc5ccccc54)C(OC4OC(CN5CCCc6ccccc65)C(OC5OC(CN6CCCc7ccccc76)C(OC6OC(CN7CCCc8ccccc87)C(OC7OC(CN8CCCc9ccccc98)C(OC8OC(CN9CCCc%10ccccc%109)C(O2)C(O)C8O)C(O)C7O)C(O)C6O)C(O)C5O)C(O)C4O)C(O)C3O)C1O (centres unmarked)
>200 µg/mL: MIC SC [4] | MIC EF [2] | MIC PA [3] | MIC EC [5]

OC1C2OC(CNC3CCCc4ccccc43)C(OC3OC(CNC4CCCc5ccccc54)C(OC4OC(CNC5CCCc6ccccc65)C(OC5OC(CNC6CCCc7ccccc76)C(OC6OC(CNC7CCCc8ccccc87)C(OC7OC(CNC8CCCc9ccccc98)C(OC8OC(CNC9CCCc%10ccccc%109)C(O2)C(O)C8O)C(O)C7O)C(O)C6O)C(O)C5O)C(O)C4O)C(O)C3O)C1O (centres unmarked)
>200 µg/mL: MIC EF [2] | MIC PA [3] | MIC EC [5]

CCCCCCCCCCCCCCCC[N+]12CC[N+](CC(=O)NCC3OC4OC5C(CNC(=O)C[N+]67CC[N+](CCCCCCCCCCCCCCCC)(CC6)CC7)OC(OC6C(CNC(=O)C[N+]78CC[N+](CCCCCCCCCCCCCCCC)(CC7)CC8)OC(OC7C(CNC(=O)C[N+]89CC[N+](CCCCCCCCCCCCCCCC)(CC8)CC9)OC(OC8C(CNC(=O)C[N+]9%10CC[N+](CCCCCCCCCCCCCCCC)(CC9)CC%10)OC(OC9C(CNC(=O)C[N+]%10%11CC[N+](CCCCCCCCCCCCCCCC)(CC%10)CC%11)OC(OC%10C(CNC(=O)C[N+]%11%12CC[N+](CCCCCCCCCCCCCCCC)(CC%11)CC%12)OC(OC3C(O)C4O)C(O)C%10O)C(O)C9O)C(O)C8O)C(O)C7O)C(O)C6O)C(O)C5O)(CC1)CC2 (centres unmarked)
>200 µg/mL: MIC SC [4] | MIC EF [2] | MIC PA [3] | MIC EC [5]

Cc1ccc(NCC2OC3OC4C(CNc5ccc(C)cc5)OC(OC5C(CNc6ccc(C)cc6)OC(OC6C(CNc7ccc(C)cc7)OC(OC7C(CNc8ccc(C)cc8)OC(OC8C(CNc9ccc(C)cc9)OC(OC9C(CNc%10ccc(C)cc%10)OC(OC2C(O)C3O)C(O)C9O)C(O)C8O)C(O)C7O)C(O)C6O)C(O)C5O)C(O)C4O)cc1 (centres unmarked)
>200 µg/mL: MIC SC [4] | MIC EF [2] | MIC PA [3] | MIC EC [5]

Cl.Cl.Cl.Cl.Cl.Cl.NCCCCCCSCC1OC2OC3C(CSCCCCCCN)OC(OC4C(CSCCCCCCN)OC(OC5C(CSCCCCCCN)OC(OC6C(CSCCCCCCN)OC(OC7C(CSCCCCCCN)OC(OC1C(O)C2O)C(O)C7O)C(O)C6O)C(O)C5O)C(O)C4O)C(O)C3O (centres unmarked)
>200 µg/mL: MIC SC [4] | MIC SA [1] | MIC EF [2] | MIC EC [5]

Cl.Cl.Cl.Cl.Cl.Cl.Cl.NCCCCCCCSCC1OC2OC3C(CSCCCCCCCN)OC(OC4C(CSCCCCCCCN)OC(OC5C(CSCCCCCCCN)OC(OC6C(CSCCCCCCCN)OC(OC7C(CSCCCCCCCN)OC(OC8C(CSCCCCCCCN)OC(OC1C(O)C2O)C(O)C8O)C(O)C7O)C(O)C6O)C(O)C5O)C(O)C4O)C(O)C3O (centres unmarked)
>200 µg/mL: MIC SC [4] | MIC SA [1] | MIC EF [2] | MIC PA [3]

OC1C2OC(CN3CCN(C4CCCCC4)CC3)C(OC3OC(CN4CCN(C5CCCCC5)CC4)C(OC4OC(CN5CCN(C6CCCCC6)CC5)C(OC5OC(CN6CCN(C7CCCCC7)CC6)C(OC6OC(CN7CCN(C8CCCCC8)CC7)C(OC7OC(CN8CCN(C9CCCCC9)CC8)C(OC8OC(CN9CCN(C%10CCCCC%10)CC9)C(O2)C(O)C8O)C(O)C7O)C(O)C6O)C(O)C5O)C(O)C4O)C(O)C3O)C1O (centres unmarked)
>200 µg/mL: MIC SC [4] | MIC EF [2] | MIC PA [3] | MIC EC [5]

Cl.Cl.Cl.Cl.Cl.Cl.Cl.N=C(N)NCCCCCCSCC1OC2OC3C(CSCCCCCCNC(=N)N)OC(OC4C(CSCCCCCCNC(=N)N)OC(OC5C(CSCCCCCCNC(=N)N)OC(OC6C(CSCCCCCCNC(=N)N)OC(OC7C(CSCCCCCCNC(=N)N)OC(OC8C(CSCCCCCCNC(=N)N)OC(OC1C(O)C2O)C(O)C8O)C(O)C7O)C(O)C6O)C(O)C5O)C(O)C4O)C(O)C3O (centres unmarked)
>200 µg/mL: MIC SC [4] | MIC EF [2] | MIC PA [3] | MIC EC [5]

CC(C)[C@H](C)NCC1OC2OC3C(CN[C@@H](C)C(C)C)OC(OC4C(CN[C@@H](C)C(C)C)OC(OC5C(CN[C@@H](C)C(C)C)OC(OC6C(CN[C@@H](C)C(C)C)OC(OC7C(CN[C@@H](C)C(C)C)OC(OC8C(CN[C@@H](C)C(C)C)OC(OC1C(O)C2O)C(O)C8O)C(O)C7O)C(O)C6O)C(O)C5O)C(O)C4O)C(O)C3O (some centres unmarked)
>200 µg/mL: MIC EF [2] | MIC PA [3]

Cl.Cl.Cl.Cl.Cl.Cl.Cl.NCCSCCCSCC1OC2OC3C(CSCCCSCCN)OC(OC4C(CSCCCSCCN)OC(OC5C(CSCCCSCCN)OC(OC6C(CSCCCSCCN)OC(OC7C(CSCCCSCCN)OC(OC8C(CSCCCSCCN)OC(OC1C(O)C2O)C(O)C8O)C(O)C7O)C(O)C6O)C(O)C5O)C(O)C4O)C(O)C3O (centres unmarked)
>200 µg/mL: MIC SC [4] | MIC SA [1] | MIC EF [2] | MIC PA [3]

— US20110071108A1, “Beta-Cyclodextrin Derivatives as Antibacterial Agents” (Pinnacle Pharmaceuticals, Inc., priority 2005, published 2011)
